Test system: anesthetized open-chest dogs
Assay: Hemodynamics of anesthetized open-chest dogs, intravenous infusion
Assay type: in vivo, mongrel dogs
Conditions: 0.15 mg/kg iv
Method: The animals were anesthetized by intravenous injection of 30 mg/kg sodium pentobarbital, tracheally intubated, and mechanically ventilated with positive air pressure. Left thoracotomy was performed through the fourth intercostal space and the heart was suspended in a pericardial cradle, the aortic root was isolated and a probe of blood flow meter (12 or 14 mm in diameter) was fixed to measure the aortic blood flow as a representation of cardiac output (CO), the circumflex branch of left coronary artery was isolated and a probe of blood flow meter (2 or 2.5 mm in diameter) was fixed to measure the coronary blood flow (CBF). A polyethylene catheter filled with heparin physiological saline was inserted through cardiac apex into the left ventricle to measure the left ventricular pressure (LVP) and left ventricular end-diastolic pressure (LVEDP), Peak positive and peak negative first derivatives of the LVP (+ LVdp/dt and − LVdp/dt) were calculated with the Acknowledge software. The systolic blood pressure (SBP), diastolic blood pressure (DBP) and mean arterial pressure (MAP) were measured by polyethylene catheter via the femoral artery, ECG □ was measured by a AC-601G ECG amplifier. The above-mentioned analog signal was input into a data acquisition workstation (MP100, BIOPAC Systems, USA) to a computer running Acknowledge (version 3.7.1).
After surgery, various indexes before administration were recorded until the indexes were stable, and then intravenous infusion administration was conducted. Thirty dogs were divided into five groups (six dogs in each group), the experiment groups were given 0.15, 0.3, 0.6 mg/kg of ASP-[…] respectively, the normal control group was given 1 ml/kg of solvent, and the positive control group was given 0.3 mg/kg of astragaloside IV. The delivery volumes were 15 ml for each dog was and the delivery velocity was 1 ml/min. The indexes were recorded at 5, 10, 15, 20, 30, 45, 60, 90 and 120 mins after drug administration. At the end of experiment, the hearts were excised and weighted. The myocardial blood flow for per hectogram (CF), coronary resistance (CR), cardiac index (CI), left ventricular work (LVW) and total peripheral resistance (TPR) were calculated according to the following formulae: CF=CBF×[…]/heart weight CR=MAP/CF CI=CO/0.11×(body weight)^2/3 LVW=CO×(MAP−5)×1.052×0.0136 TPR=MAP×79.92/CO
Data are expressed as mean±SD ( x±s), the paired t-test was used to compare the significance between before and after administration, the unpaired t-test was adopted for comparison between groups.

CC(C)(O)[C@@H]1CC[C@](C)([C@H]2[C@@H](O)C[C@@]3(C)C4C[C@H](OC5OC(CO)C(O)C(O)C5O)C5C(C)(C)[C@@H](O)CC[C@@]56C[C@@]46CC[C@]23C)O1 (stereo partly drawn) [CMG, Cycloastragenol-6-O-β-D-glucoside]
LVW (20 min after administration): 1.04 ± 0.23 kg · m | LVW change vs before administration (20 min after administration): (−0.08 ± 0.21) kg · m | TPR (20 min after administration): 4882 ± 1971 dyn · s/cm^5 | TPR change vs before administration (20 min after administration): (−268 ± 672) dyn · s/cm^5 | dp/dt (20 min after administration): 1144 ± 452 mmHg/s | dp/dt change vs before administration (20 min after administration): (−6 ± 113) mmHg/s | −dp/dt (20 min after administration): −830 ± 277 mmHg/s | −dp/dt change vs before administration (20 min after administration): (58 ± 77) mmHg/s | CF (30 min after administration): 52.5 ± 16.9 ml/min/100 g | CF change vs before administration (30 min after administration): (−5.2 ± 7.9) ml/min/100 g | CI (30 min after administration): 1.98 ± 0.44 L/min/m^2 | CI change vs before administration (30 min after administration): (−0.10 ± 0.27) L/min/m^2 | CO (30 min after administration): 1.14 ± 0.24 L/min | CO change vs before administration (30 min after administration): (−0.07 ± 0.16) L/min | CR (30 min after administration): 1.38 ± 0.38 mmHg/ml/min/100 g | CR change vs before administration (30 min after administration): (0.02 ± 0.13) mmHg/ml/min/100 g | LVEDP (30 min after administration): 1.2 ± 2.4 mmHg | LVEDP change vs before administration (30 min after administration): (−0.58 ± 0.46) mmHg | LVP (30 min after administration): 100 ± 21 mmHg | LVP change vs before administration (30 min after administration): (−5.0 ± 7.3) mmHg | LVW (30 min after administration): 1.01 ± 0.26 kg · m | LVW change vs before administration (30 min after administration): (−0.11 ± 0.27) kg · m | TPR (30 min after administration): 5045 ± 2043 dyn · s/cm^5 | TPR change vs before administration (30 min after administration): (−105 ± 498) dyn · s/cm^5 | dp/dt (30 min after administration): 1170 ± 425 mmHg/s | dp/dt change vs before administration (30 min after administration): (20 ± 157) mmHg/s | −dp/dt (30 min after administration): −863 ± 258 mmHg/s | −dp/dt change vs before administration (30 min after administration): (25 ± 79) mmHg/s | CF (45 min after administration): 51.6 ± 17.1 ml/min/100 g | CF change vs before administration (45 min after administration): (−6.1 ± 8.1) ml/min/100 g | CI (45 min after administration): 2.02 ± 0.45 L/min/m^2 | CI change vs before administration (45 min after administration): (−0.06 ± 0.43) L/min/m^2 | CO (45 min after administration): 1.16 ± 0.22 L/min | CO change vs before administration (45 min after administration): (−0.04 ± 0.25) L/min | CR (45 min after administration): 1.42 ± 0.39 mmHg/ml/min/100 g | CR change vs before administration (45 min after administration): (0.07 ± 0.20) mmHg/ml/min/100 g | LVEDP (45 min after administration): 1.3 ± 2.2 mmHg | LVEDP change vs before administration (45 min after administration): (−0.5 ± 0.44) mmHg | LVP (45 min after administration): 101 ± 19 mmHg | LVP change vs before administration (45 min after administration): (−3.6 ± 4.6) mmHg | LVW (45 min after administration): 1.06 ± 0.31 kg · m | LVW change vs before administration (45 min after administration): (−0.06 ± 0.32) kg · m | TPR (45 min after administration): 4951 ± 1731 dyn · s/cm^5 | TPR change vs before administration (45 min after administration): (−199 ± 925) dyn · s/cm^5 | dp/dt (45 min after administration): 1164 ± 356 mmHg/s | dp/dt change vs before administration (45 min after administration): (14 ± 86) mmHg/s | −dp/dt (45 min after administration): −854 ± 259 mmHg/s | −dp/dt change vs before administration (45 min after administration): (34 ± 80) mmHg/s | CF (60 min after administration): 51.8 ± 15.0 ml/min/100 g | CF change vs before administration (60 min after administration): (−5.9 ± 9.9) ml/min/100 g | CI (60 min after administration): 1.92 ± 0.42 L/min/m^2 | CI change vs before administration (60 min after administration): (−0.16 ± 0.37) L/min/m^2 | CO (60 min after administration): 1.11 ± 0.21 L/min | CO change vs before administration (60 min after administration): (−0.10 ± 0.23) L/min | CR (60 min after administration): 1.38 ± 0.36 mmHg/ml/min/100 g | CR change vs before administration (60 min after administration): (0.03 ± 0.16) mmHg/ml/min/100 g | LVEDP (60 min after administration): 1.3 ± 2.1 mmHg | LVEDP change vs before administration (60 min after administration): (−0.46 ± 0.41) mmHg | LVP (60 min after administration): 101 ± 19 mmHg | LVP change vs before administration (60 min after administration): (−4.1 ± 4.9) mmHg | LVW (60 min after administration): 1.00 ± 0.34 kg · m | LVW change vs before administration (60 min after administration): (−0.12 ± 0.33) kg · m | TPR (60 min after administration): 5112 ± 1599 dyn · s/cm^5 | TPR change vs before administration (60 min after administration): (−38 ± 811) dyn · s/cm^5 | dp/dt (60 min after administration): 1126 ± 375 mmHg/s | dp/dt change vs before administration (60 min after administration): (−24 ± 57) mmHg/s | −dp/dt (60 min after administration): −841 ± 249 mmHg/s | −dp/dt change vs before administration (60 min after administration): (47 ± 92) mmHg/s | CF (90 min after administration): 53.7 ± 14.3 ml/min/100 g | CF change vs before administration (90 min after administration): (−4.0 ± 10.4) ml/min/100 g | CI (90 min after administration): 1.83 ± 0.36 L/min/m^2 | CI change vs before administration (90 min after administration): (−0.25 ± 0.39) L/min/m^2 | CO (90 min after administration): 1.06 ± 0.20 L/min
